Data as given in patent US4731451A, “N-((2-oxo-3(2H)benzothiazolyl)methyl)-2-chloroacetanilides” (Monsanto Company, priority 1980, dated 1988).

Key:
Format in all cases: in vivo
Barnyardgrass [1] = test: Pre-emergent herbicidal activity (Table II); conditions: 2-3 weeks
Summary of the method: (§1)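 Percent injury, converted to a fixed-scale rating, is recorded roughly 2-3 weeks after seeding and treatment. The active ingredient is blended into the cover-layer soil laid over seeded pans, which then sit in a greenhouse with bottom watering as needed.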

Canada Thistle = test: Pre-emergent herbicidal activity (Table II); conditions: 2-3 weeks
Summary of the method: as §1

Cocklebur [2] = test: Pre-emergent herbicidal activity (Table II); conditions: 2-3 weeks
Summary of the method: as §1

Downy Brome [3] = test: Pre-emergent herbicidal activity (Table II); conditions: 2-3 weeks
Summary of the method: as §1

Johnsongrass = test: Pre-emergent herbicidal activity (Table II); conditions: 2-3 weeks
Summary of the method: as §1

Lambsquarters [4] = test: Pre-emergent herbicidal activity (Table II); conditions: 2-3 weeks
Summary of the method: as §1

Morningglory [5] = test: Pre-emergent herbicidal activity (Table II); conditions: 2-3 weeks
Summary of the method: as §1

Quackgrass = test: Pre-emergent herbicidal activity (Table II); conditions: 2-3 weeks
Summary of the method: as §1

Smartweed [6] = test: Pre-emergent herbicidal activity (Table II); conditions: 2-3 weeks
Summary of the method: as §1

Velvetleaf [7] = test: Pre-emergent herbicidal activity (Table II); conditions: 2-3 weeks
Summary of the method: as §1

Yellow Nutsedge = test: Pre-emergent herbicidal activity (Table II); conditions: 2-3 weeks
Summary of the method: as §1

Barnyardgrass [8] = test: Pre-emergent herbicidal activity (Table III)
Summary of the method: (§2)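 Percent injury per species, converted to a fixed rating scale, is recorded roughly 2-3 weeks after seeding and treatment. The compound is mixed through the soil used to cover the seeds, and pans are held in a greenhouse and watered from below.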

Cocklebur [9] = test: Pre-emergent herbicidal activity (Table III)
Summary of the method: as §2

Crabgrass = test: Pre-emergent herbicidal activity (Table III)
Summary of the method: as §2

Downy Brome [10] = test: Pre-emergent herbicidal activity (Table III)
Summary of the method: as §2

Hemp Sesbania = test: Pre-emergent herbicidal activity (Table III)
Summary of the method: as §2

Lambsquarters [11] = test: Pre-emergent herbicidal activity (Table III)
Summary of the method: as §2

Morningglory [12] = test: Pre-emergent herbicidal activity (Table III)
Summary of the method: as §2

Panicum = test: Pre-emergent herbicidal activity (Table III)
Summary of the method: as §2

Rice = test: Pre-emergent herbicidal activity (Table III)
Summary of the method: as §2

Smartweed [13] = test: Pre-emergent herbicidal activity (Table III)
Summary of the method: as §2

Sorghum = test: Pre-emergent herbicidal activity (Table III)
Summary of the method: as §2

Soybean = test: Pre-emergent herbicidal activity (Table III)
Summary of the method: as §2

Sugarbeet = test: Pre-emergent herbicidal activity (Table III)
Summary of the method: as §2

Velvetleaf [14] = test: Pre-emergent herbicidal activity (Table III)
Summary of the method: as §2

Wheat = test: Pre-emergent herbicidal activity (Table III)
Summary of the method: as §2

Wild Buckwheat = test: Pre-emergent herbicidal activity (Table III)
Summary of the method: as §2
Also: ranges in brackets are in %.

With “N--[(2-oxo-3(2H)--benzothiazolyl)methyl]-N--(2-ethyl-6-methyl-1-cyclohexen-1-yl)-2-chloro-acetamide, mixed with its -N--[(2-oxo-3(2H)--benzothiazolyl)methyl]-N--(2-methyl-6-ethyl-1-cyclohexen-1-yl)-2-chloroacetamide [Example 4]” the Herbicidal rating (Barnyardgrass [1]; 5.6 kg/ha) was 3 (75-100), the Herbicidal rating (Barnyardgrass [1]; 11.2 kg/ha) was 3 (75-100) and the Herbicidal rating (Canada Thistle; 5.6 kg/ha) was 1 (25-49). The Herbicidal rating (Canada Thistle; 11.2 kg/ha) was 2 (50-74), the Herbicidal rating (Cocklebur [2]; 5.6 kg/ha) was 0 (0-24) and the Herbicidal rating (Cocklebur [2]; 11.2 kg/ha) was 0 (0-24). For the same substance, the Herbicidal rating (Downy Brome [3]; 5.6 kg/ha) was 1 (25-49), the Herbicidal rating (Downy Brome [3]; 11.2 kg/ha) was 1 (25-49) and the Herbicidal rating (Johnsongrass; 5.6 kg/ha) was 0 (0-24). For the same substance, the Herbicidal rating (Johnsongrass; 11.2 kg/ha) was 3 (75-100), the Herbicidal rating (Lambsquarters [4]; 5.6 kg/ha) was 1 (25-49) and the Herbicidal rating (Lambsquarters [4]; 11.2 kg/ha) was 3 (75-100). For the same substance, the Herbicidal rating (Morningglory [5]; 5.6 kg/ha) was 0 (0-24), the Herbicidal rating (Morningglory [5]; 11.2 kg/ha) was 0 (0-24) and the Herbicidal rating (Quackgrass; 5.6 kg/ha) was 0 (0-24). The Herbicidal rating (Quackgrass; 11.2 kg/ha) was 0 (0-24), the Herbicidal rating (Smartweed [6]; 5.6 kg/ha) was 0 (0-24) and the Herbicidal rating (Smartweed [6]; 11.2 kg/ha) was 0 (0-24). For the same substance, the Herbicidal rating (Velvetleaf [7]; 5.6 kg/ha) was 0 (0-24), the Herbicidal rating (Velvetleaf [7]; 11.2 kg/ha) was 0 (0-24) and the Herbicidal rating (Yellow Nutsedge; 5.6 kg/ha) was 0 (0-24). For the same substance, the Herbicidal rating (Yellow Nutsedge; 11.2 kg/ha) was 0 (0-24), the Herbicidal rating (Barnyardgrass [8]; 0.28 kg/ha) was 0 (0-24) and the Herbicidal rating (Barnyardgrass [8]; 1.12 kg/ha) was 3 (75-100). The Herbicidal rating (Barnyardgrass [8]; 5.6 kg/ha) was 3 (75-100), the Herbicidal rating (Cocklebur [9]; 1.12 kg/ha) was 0 (0-24) and the Herbicidal rating (Cocklebur [9]; 5.6 kg/ha) was 3 (75-100). For the same substance, the Herbicidal rating (Crabgrass; 0.28 kg/ha) was 2 (50-74), the Herbicidal rating (Crabgrass; 1.12 kg/ha) was 3 (75-100) and the Herbicidal rating (Crabgrass; 5.6 kg/ha) was 3 (75-100). For the same substance, the Herbicidal rating (Downy Brome [10]; 0.28 kg/ha) was 0 (0-24), the Herbicidal rating (Downy Brome [10]; 1.12 kg/ha) was 0 (0-24) and the Herbicidal rating (Downy Brome [10]; 5.6 kg/ha) was 0 (0-24). For the same substance, the Herbicidal rating (Hemp Sesbania; 0.28 kg/ha) was 0 (0-24), the Herbicidal rating (Hemp Sesbania; 1.12 kg/ha) was 0 (0-24) and the Herbicidal rating (Hemp Sesbania; 5.6 kg/ha) was 3 (75-100). The Herbicidal rating (Lambsquarters [11]; 0.28 kg/ha) was 0 (0-24), the Herbicidal rating (Lambsquarters [11]; 1.12 kg/ha) was 2 (50-74) and the Herbicidal rating (Lambsquarters [11]; 5.6 kg/ha) was 3 (75-100). For the same substance, the Herbicidal rating (Morningglory [12]; 0.28 kg/ha) was 1 (25-49), the Herbicidal rating (Morningglory [12]; 1.12 kg/ha) was 0 (0-24) and the Herbicidal rating (Morningglory [12]; 5.6 kg/ha) was 1 (25-49). For the same substance, the Herbicidal rating (Panicum; 0.28 kg/ha) was 0 (0-24), the Herbicidal rating (Panicum; 1.12 kg/ha) was 0 (0-24) and the Herbicidal rating (Panicum; 5.6 kg/ha) was 2 (50-74). The Herbicidal rating (Rice; 0.28 kg/ha) was 0 (0-24), the Herbicidal rating (Rice; 1.12 kg/ha) was 0 (0-24) and the Herbicidal rating (Rice; 5.6 kg/ha) was 1 (25-49). For the same substance, the Herbicidal rating (Smartweed [13]; 0.28 kg/ha) was 0 (0-24), the Herbicidal rating (Smartweed [13]; 1.12 kg/ha) was 3 (75-100) and the Herbicidal rating (Smartweed [13]; 5.6 kg/ha) was 3 (75-100). For the same substance, the Herbicidal rating (Sorghum; 0.28 kg/ha) was 0 (0-24), the Herbicidal rating (Sorghum; 1.12 kg/ha) was 0 (0-24) and the Herbicidal rating (Sorghum; 5.6 kg/ha) was 0 (0-24). For the same substance, the Herbicidal rating (Soybean; 0.28 kg/ha) was 0 (0-24), the Herbicidal rating (Soybean; 1.12 kg/ha) was 0 (0-24) and the Herbicidal rating (Soybean; 5.6 kg/ha) was 0 (0-24). For the same substance, the Herbicidal rating (Sugarbeet; 0.28 kg/ha) was 1 (25-49), the Herbicidal rating (Sugarbeet; 1.12 kg/ha) was 0 (0-24) and the Herbicidal rating (Sugarbeet; 5.6 kg/ha) was 1 (25-49). The Herbicidal rating (Velvetleaf [14]; 0.28 kg/ha) was 0 (0-24), the Herbicidal rating (Velvetleaf [14]; 1.12 kg/ha) was 0 (0-24) and the Herbicidal rating (Velvetleaf [14]; 5.6 kg/ha) was 0 (0-24). For the same substance, the Herbicidal rating (Wheat; 0.28 kg/ha) was 0 (0-24), the Herbicidal rating (Wheat; 1.12 kg/ha) was 0 (0-24) and the Herbicidal rating (Wheat; 5.6 kg/ha) was 0 (0-24). The Herbicidal rating (Wild Buckwheat; 0.28 kg/ha) was 0 (0-24), the Herbicidal rating (Wild Buckwheat; 1.12 kg/ha) was 0 (0-24) and the Herbicidal rating (Wild Buckwheat; 5.6 kg/ha) was 0 (0-24).
